Molecules are shown by their SMILES. Where two headings read alike, the source gives them in different places. A value given as a limit tells only on which side of the number the result lay.

Data on four molecules can be found in patent publication US10457680B2, “Process for preparing a PARP inhibitor, crystalline forms, and uses thereof” (BeiGene, Ltd., priority 2015, dated 2019).

Series [1] is described as follows: Long term stability studies. The following applies: for Assay w/w, T12: 12 months; for Assay w/w, T0: start. The class given is physicochemical.
The nature of series [2]: Hygroscopicity. The class given is physicochemical.
A short description of series [3]: Solubility study. The class given is physicochemical.
The test system of series [4] is BRCA1/2 mutant ovary cancer. The experiment in a line: Phase I clinical safety study, capsules. The class given is in vivo, human.
Series [5] addresses PARP2 (aa2-583) (Homo sapiens, UniProt Q9UGN5). Briefly: PARP2 PARylation chemiluminescent assay. The class given is biochemical. The following applies: Crystalline Form C tested.
Experimental: PARP1 and PARP2 enzymes were from the assay kits, while TNKS1 and TNKS2 enzymes were produced in-house. The assays were performed according to the manufacture's instruction. Briefly, H2A and H2B proteins were immobilized on the surface of plates and then incubated with a serial dilution of compounds and the target enzyme for 0.5 hr. Then, biotinylated NAD and DNA (no DNA needed for TNKS1 or TNKS2) were added to the wells to initiate reactions. The biotinylated PARsylation product was measured by chemiluminescence after adding streptavidin-HRP and HRP substrates.
The test system of series [6] is MDA-MB-231 cells. The experiment in a line: Growth inhibition, CellTiter-Glo, 7-day exposure, MDA-MB-231. The settings on record: BRCA wild type. The class given is cell-based. How it is done: (§1) MDA-MB-231 cells that is not BRCA gene mutant or other homologous recombination deficient were maintained in DMEM supplemented with fetal bovine serum (10% FBS), 100 units/ml penicillin and 0.1 mg/ml streptomycin. BRCA1-deficient cell line MDA-MB-436 was maintained in RPMI-1640 supplemented with 10% FBS, 100 units/ml penicillin and 0.1 mg/ml streptomycin. Both two cell lines were kept at 95% humidity and 5% CO2 in a 37° C. incubator.
(§2) The number of tumor cells seeded per well of a 96-well plate was optimized for each cell line to ensure logarithmic growth over the 7 days treatment period. Cells were left to attach for 16 hours and then treated with specific concentrations of test compounds. Following a 7-day exposure to the compound, the growth-inhibitory activity of compounds was determined using CellTiter-Glo luminescent cell viability assay (Promega). Luminescent signal was measured using PHERAstar FS reader (BMG Labtech). Cell viability was expressed as relative to mock treatment control. EC50 values for growth inhibition were calculated by fitting dose-dependent data to the four-parameter logistic model using XLfit software.
(ATP-based viability assays read luminescence as a measure of living cells.)

Series [7] in a line: Nonclinical toxicity, single and repeat dose studies up to 28 days. The following applies: rats and dogs. The class given is in vivo. From the text: The nonclinical toxicity profile of Compound A was characterized in both rats and dogs in single and repeat dose studies up to 28 days. The adverse effects included decrease in body weights or body weight gain and food consumption; decrease in WBC, NEUT, LYMP, RBC, HGB, HCT and APTT; and increase in PLT. The bone marrow was considered to be the major target organ and the severity of histopathological changes ranged from minimal to marked. […] […]. In summary, the available toxicological data are adequate to support the clinical development of Compound A on late stage and advanced cancer patients in phase I study. The toxicity could be monitored and manageable clinically.

For series [8], the target named is CYP2C9 (Homo sapiens, UniProt P11712). Briefly: CYP2C9 inhibition. The class given is in vitro ADME.
CYP2C9, sequence (P11712 whole entry): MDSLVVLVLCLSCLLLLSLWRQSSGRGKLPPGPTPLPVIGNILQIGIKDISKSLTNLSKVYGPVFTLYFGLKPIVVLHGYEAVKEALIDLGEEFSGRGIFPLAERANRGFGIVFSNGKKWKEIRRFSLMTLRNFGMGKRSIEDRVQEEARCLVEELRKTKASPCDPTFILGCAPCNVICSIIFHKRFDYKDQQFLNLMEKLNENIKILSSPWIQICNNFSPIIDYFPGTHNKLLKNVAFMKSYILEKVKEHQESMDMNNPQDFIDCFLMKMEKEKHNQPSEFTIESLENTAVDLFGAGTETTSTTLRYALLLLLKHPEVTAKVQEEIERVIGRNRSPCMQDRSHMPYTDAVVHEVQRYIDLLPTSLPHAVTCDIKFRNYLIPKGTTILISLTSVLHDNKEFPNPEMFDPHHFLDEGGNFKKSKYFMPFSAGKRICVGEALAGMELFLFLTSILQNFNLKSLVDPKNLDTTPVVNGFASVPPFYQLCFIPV
Series [9] is described as follows: Plasma protein binding, human. The following applies: read-out: Plasma protein binding (PPB) (converted). The class given is in vitro ADME.
A short description of series [10]: Metabolism in dog liver microsomes. The class given is in vitro ADME.
Series [11] in a line: Metabolism in monkey liver microsomes. The class given is in vitro ADME.
Series [12] in a line: Plasma protein binding, mouse. The class given is in vitro ADME. The settings on record: read-out: Plasma protein binding (PPB) (converted).
Series [13] has as its system intracranial H209 xenografts. Briefly: Intracranial H209 xenografts, combination with TMZ. The class given is in vivo, Mice. The following applies: Compound A added to TMZ, compared to TMZ single agent.
Series [14] in a line: Metabolism in human liver microsomes. The class given is in vitro ADME. (In general: Microsomes from liver hold many membrane-bound enzymes, among them those of drug oxidation.)
Series [15] in a line: Plasma protein binding, monkey. The class given is in vitro ADME. The following applies: read-out: Plasma protein binding (PPB) (converted).
Series [16] has as its system PARP. Briefly: In vivo pharmacodynamics: PARylation in MDA-MB-436 breast cancer xenografts. More on the design: species or system BALB/c nude mice. The following applies: 4 hours after single oral dose at 0.34 mg/kg or higher.
Series [17] deals with BRCA1 mutation breast cancer xenograft. The experiment in a line: BRCA1 mutation breast cancer xenograft model. The class given is in vivo. The following applies: at much lower dose than olaparib.
The nature of series [18]: Pharmacokinetics in rat. The class given is in vivo. How it is done: (§3) The species used for the pharmacokinetic studies were rat and dog. Compound A had good to excellent oral bioavailability (>40%) in both species. Elimination half-lives ranged from 3.1 to 5.0 hours in rats and 1.5 to 2.5 hours in dogs after oral administration. […] Steady state volume of distribution in rats and dogs was 2.4 L/kg and 1.9 L/kg, respectively.

Series [19] is described as follows: Tissue distribution after oral administration in rats. The settings on record: 24 hours post-dosing. The class given is in vivo.
Series [20] in a line: Metabolism in rat liver microsomes. The class given is in vitro ADME.
The subject of series [21] is other CYP isozymes. Briefly: Inhibition of other CYP isozymes. The following applies: human; read-out: IC50s for other CYP isozymes. The class given is in vitro ADME.
A short description of series [22]: Excretion after oral administration in rats. The class given is in vivo.
A short description of series [23]: Plasma protein binding, dog. The class given is in vitro ADME. The following applies: read-out: Plasma protein binding (PPB) (converted).
Series [24] concerns rat plasma protein. The experiment in a line: Plasma protein binding, rat. The class given is in vitro ADME.
The nature of series [25]: Ames assay.
The test system of series [26] is human CYP2B6. The experiment in a line: CYP2B6 induction. The class given is in vitro ADME.
For series [27], the system named is MDA-MB-436 cells (BRCA1 Deficient). Briefly: Growth inhibition, CellTiter-Glo, 7-day exposure, MDA-MB-436. The class given is cell-based, human. The following applies: for EC50: 7-day exposure, BRCA1 Deficient, read-out: EC50 for growth inhibition, MDA-MB-436 (Table 20). How it is done:
as §1, §2

Series [28] can be described thus: Metabolism in mouse liver microsomes. The class given is in vitro ADME.
Series [29] deals with hERG current (Homo sapiens, UniProt Q12809). Briefly: hERG current. The class given is cell-based.
hERG current, sequence (Q12809 whole entry): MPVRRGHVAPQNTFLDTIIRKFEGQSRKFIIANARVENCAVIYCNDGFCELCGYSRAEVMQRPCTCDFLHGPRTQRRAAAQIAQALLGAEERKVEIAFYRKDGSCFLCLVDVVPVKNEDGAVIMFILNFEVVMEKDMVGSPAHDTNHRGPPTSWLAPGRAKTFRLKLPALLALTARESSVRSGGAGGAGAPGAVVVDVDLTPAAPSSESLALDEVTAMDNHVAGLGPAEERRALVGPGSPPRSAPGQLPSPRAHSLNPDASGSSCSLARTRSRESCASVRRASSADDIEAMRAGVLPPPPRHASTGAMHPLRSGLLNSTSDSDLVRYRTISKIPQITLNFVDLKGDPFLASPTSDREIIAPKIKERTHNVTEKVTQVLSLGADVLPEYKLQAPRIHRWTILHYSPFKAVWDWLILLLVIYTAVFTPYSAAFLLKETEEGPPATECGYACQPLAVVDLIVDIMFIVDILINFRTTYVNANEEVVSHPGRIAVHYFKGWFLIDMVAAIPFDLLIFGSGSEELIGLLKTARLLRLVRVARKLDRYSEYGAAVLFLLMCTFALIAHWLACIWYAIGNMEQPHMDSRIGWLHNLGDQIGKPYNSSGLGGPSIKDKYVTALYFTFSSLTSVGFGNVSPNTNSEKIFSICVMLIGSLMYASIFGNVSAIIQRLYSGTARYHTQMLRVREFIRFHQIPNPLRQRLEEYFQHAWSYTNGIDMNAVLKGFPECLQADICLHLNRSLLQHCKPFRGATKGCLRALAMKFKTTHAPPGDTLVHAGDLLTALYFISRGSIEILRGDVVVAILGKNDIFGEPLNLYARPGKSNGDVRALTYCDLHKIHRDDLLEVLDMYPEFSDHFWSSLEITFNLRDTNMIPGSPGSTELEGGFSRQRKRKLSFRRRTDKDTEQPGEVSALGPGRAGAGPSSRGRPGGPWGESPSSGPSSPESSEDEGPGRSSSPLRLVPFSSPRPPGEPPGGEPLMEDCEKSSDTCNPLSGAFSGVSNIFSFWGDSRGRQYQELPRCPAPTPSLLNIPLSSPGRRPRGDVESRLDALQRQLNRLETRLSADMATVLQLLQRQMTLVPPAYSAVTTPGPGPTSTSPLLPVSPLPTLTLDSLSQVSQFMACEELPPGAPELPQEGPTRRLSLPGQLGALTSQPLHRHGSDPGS
Series [30] has as its system human CYP3A. Briefly: CYP3A induction. The class given is in vitro ADME.
Series [31] can be described thus: Pharmacokinetics in dog. The class given is in vivo. How it is done:
as §3

Series [32] in a line: Brain penetration. The settings on record: in vivo.
Series [33] relates to CYP3A, CYP2C8. The experiment in a line: CYP isoforms responsible for metabolism. The class given is in vitro ADME.
In series [34] the test system is human CYP1A2. Briefly: CYP1A2 induction. The class given is in vitro ADME.
The test system of series [35] is Intracellular PARP activity. The class given is cell-based. The settings on record: HeLa cells, H2O2 200 μM; read-out: IC50 (nM) in PARylation assay.
Experimental: Upon incubation with hydrogen peroxide (H2O2), Intracellular PARP activity was induced and endogenous PAR level was elevated. The assay was performed as follows:
Cells were plated into a 96-well plate with clear bottom and black wall at a density of 5000 cells per well (100 μL). […] In the following day, H2O2 solution in PBS (final concentration 200 μM) was added and the plate was kept at 37° C. for 5 minutes. Then the medium was gently removed by plate inversion, and the cells were fixed by ice-cold MeOH at −20° C. for 20 minutes. […] After removal of solution and repeated wash with PBS, the PAR polymer level was estimated by ArrayScan VTI (ThermoFisher). Percent inhibition was determined on the basis of the residual enzyme activity in the presence of increasing PARP inhibitor concentration. IC50 values were calculated by fitting dose-dependent data to the four-parameter logistic model using XLfit software.
Where [36] appears, read: read-out: EC50 for growth inhibition, MDA-MB-231 (Table 20).

PARP2 (aa2-583), sequence (Q9UGN5 2-583): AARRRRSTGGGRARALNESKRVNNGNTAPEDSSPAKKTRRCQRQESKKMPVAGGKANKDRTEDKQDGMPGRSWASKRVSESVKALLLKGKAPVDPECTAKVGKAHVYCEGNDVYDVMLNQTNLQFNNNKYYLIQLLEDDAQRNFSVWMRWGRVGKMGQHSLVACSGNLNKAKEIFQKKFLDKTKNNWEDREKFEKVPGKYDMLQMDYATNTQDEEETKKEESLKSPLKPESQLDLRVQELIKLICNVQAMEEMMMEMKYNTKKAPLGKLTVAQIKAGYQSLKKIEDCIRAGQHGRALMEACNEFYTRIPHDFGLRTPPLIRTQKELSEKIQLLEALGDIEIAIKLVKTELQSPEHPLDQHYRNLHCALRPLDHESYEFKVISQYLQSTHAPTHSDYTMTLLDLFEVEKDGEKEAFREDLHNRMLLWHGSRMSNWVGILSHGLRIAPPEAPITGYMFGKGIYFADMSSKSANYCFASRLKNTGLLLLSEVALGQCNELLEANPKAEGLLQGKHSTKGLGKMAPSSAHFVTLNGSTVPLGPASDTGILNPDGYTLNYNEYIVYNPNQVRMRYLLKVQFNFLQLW

`C[C@]12CCCN1CC1=NNC(=O)c3cc(F)cc4[nH]c2c1c34` [Compound A sesqui-hydrate, (R)-2-fluoro-10a-methyl-7,8,9,10,10a,11-hexahydro-5,6,7a,11-tetraazacyclohepta[def]cyclopenta[a]fluoren-4(5H)-one sesqui-hydrate]: the “crystal form and optical purity on storage” value in [1] (25° C./60% RH and 40° C./75% RH, up to 12 months) was “no crystal form and optical purity changes were observed”. The “Assay w/w, T12” value in series [1] (25° C./60% RH) came out at 99.0%; in series [1] (40° C./75% RH), 98.9%. Further, the “Assay w/w, T0” value worked out at 99.1% in [1] (25° C./60% RH) and 99.0% in [1] (40° C./75% RH). Besides, the hygroscopicity entry in series [2] is on record as “slightly hygroscopic”. In addition, the “solubility in simulated gastric fluid (SGF)” value in [3] (SGF, pH=1.2) was 4500 µg/mL. Also, the solubility (usually the concentration that dissolves in the medium under given conditions) in [3] (simulated gastric fluid (SGF), pH 1.2, simulated gastric fluid, SGF, pH=1.2, read-out: solubility in simulated gastric fluid (SGF)) is around 4500 µg/mL; in [3] (water, read-out: solubility in water), around 40 µg/mL. The molecule further displayed a solubility in water in series [3] (water) of 40 µg/mL. For the same molecule, the “clinical safety and tolerability” value in series [4] (25 subjects, 2.5-120 mg bid, capsules) was “safe and well tolerated”. This molecule also showed an IC50 in series [5] of 0.00092 µM.

Take `C[C@]12CCCN1CC1=NNC(=O)c3cc(F)cc4[nH]c2c1c34` [Compound A, (R)-2-fluoro-10a-methyl-7,8,9,10,10a,11-hexahydro-5,6,7a,11-tetraazacyclohepta[def]cyclopenta[a]fluoren-4(5H)-one]: the EC50 (as a rule, the concentration needed to bring the measured effect to its halfway point) in series [6] (Homo sapiens, MDA-MB-231, 168 h, read-out: EC50 for growth inhibition, MDA-MB-231) is around 9 µM; in series [6] (Homo sapiens, MDA-MB-231, 168 h, read-out: EC50 for growth inhibition, MDA-MB-231 (Table 20)) it was around 9 µM; in series [27] (Homo sapiens, MDA-MB-436, 168 h), 0.041 ± 0.015 µM. The character of toxicity result in [7] (28-day recovery phase) is “dose dependent, correlated with systemic exposure and reversible”. Moreover, in series [7] (up to 28 days), the “major target organ of toxicity” value is given as “bone marrow”. For the same molecule, the values for the IC50 in series [8], in series [21] and in series [29] were 6.48 µM, above 10 µM and 26 µM, respectively. Moreover, the fraction unbound in series [9] was 0.043; in series [12] it was 0.15; in series [15], 0.111; in [23], 0.21. Further, the rate of metabolism entry in series [10] is listed as “slowly”; in series [11], “quickly”; in series [14], “slowly”; in series [20], “slowly”; in [28] it was “slowly”. The animal survival result in [13] is recorded as “significantly prolonged animal survival”. In series [16], the “inhibition of PARylation” value is “Potent inhibition of PARylation”. In addition, the tumor regression result in [17] is on record as “significantly induces tumor regression”. In addition, the “accumulation following multiple oral dosing” value in [18] and in [31] was “no accumulation” in each case. The bioavailability – broadly, dose-corrected exposure relative to a reference, in per cent – in series [18] (in vivo, po) was above 40%; in series [31] (in vivo, po) it was above 40%. The clearance – broadly, a measure of how efficiently the substance is removed, as volume per time – was in the range of 8.67 to 15.2 mL/min/kg in series [18] (in vivo, rats) and 18.3 to 18.5 mL/min/kg in series [31] (in vivo, dogs). The half-life fell in the range of 3.1 to 5 h in series [18] (in vivo, rats, oral administration, read-out: Elimination half-lives) and 1.5 to 2.5 h in series [31] (in vivo, dogs, oral administration, read-out: Elimination half-lives). Further, the Vd in [18] (in vivo, rats, read-out: Steady state volume of distribution) came out at 2.4 L/kg; in [31] (in vivo, dogs, read-out: Steady state volume of distribution) it was 1.9 L/kg. Further, the “organ drug concentration as % of the peak concentration” value in series [19] was “less than 10%”. In series [22], the “excreted in urine and bile” value is reported as “Less than 1%”. The “Plasma protein binding (PPB)” value in series [24] amounted to 84.9%. For the same molecule, the mutagenicity result in [25] is “No mutagenicity”. Besides, the “induction of human CYP2B6” value in series [26] was “not an inducer”. The “sensitivity of MDA-MB-436 cells” value in [27] (BRCA1-deficient) is given as “profoundly sensitive”. In addition, in series [4] (BRCA1/2 mutant ovary cancer patients), the clinical response entry was “partial or complete responses”. The “induction of human CYP3A” value in series [30] is recorded as “not an inducer”. Moreover, in series [32], the brain penetration result is “significant brain penetration”. Besides, the “CYP isoform responsible for metabolism” value in [33] is “CYP3A was the major CYP isoform”. In addition, in series [34], the “induction of human CYP1A2” value is “not an inducer”.

Take `O=C(c1cc(Cc2n[nH]c(=O)c3ccccc23)ccc1F)N1CCN(C(=O)C2CC2)CC1` [Olaparib, olaparib, reference compound]: the 50% effective concentration (EC50) in [6] (setting [36]) is around 5 µM; in series [27], 0.021 ± 0.007 µM.

`C[C@]1(c2nc3c(C(N)=O)cccc3[nH]2)CCCN1` [Veliparib, veliparib, reference compound]: the IC50 in [35] is 2.66 nM. The values for the EC50 in series [6] (setting [36]) and in series [27] were above 10 µM and 0.82 ± 0.3 µM, respectively.
